Experimental data as given in patent US6316503A, “LXR modulators” (Tularik Inc., priority 2000, dated 2001).
pEC50: −log10 of the molar value.

Columns and labels:
LXRα [1] = molecular target: T1, LXRα (Homo sapiens, UniProt Q13133); assay: cell-based GAL4-LXRα luciferase reporter assay; settings: 293 cells with GAL4 DNA-binding domain fused to LXRα ligand-binding domain, UAS luciferase reporter; concentration producing 50% of maximal luciferase activity
T1 construct: expressed in transfected cells; host or cells: 293 cells
T1 sequence (Q13133 209-447 limits assumed): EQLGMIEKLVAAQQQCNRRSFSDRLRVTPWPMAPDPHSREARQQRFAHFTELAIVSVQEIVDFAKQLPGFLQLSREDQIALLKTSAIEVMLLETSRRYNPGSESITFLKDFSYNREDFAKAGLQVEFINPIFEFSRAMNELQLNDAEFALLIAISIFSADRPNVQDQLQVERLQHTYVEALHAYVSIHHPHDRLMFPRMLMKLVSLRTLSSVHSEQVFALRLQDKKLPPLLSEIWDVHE
Excerpt: (§1) LXRα agonist activity can be characterized in a cell-based assay or a peptide-sensor assay. The same assays can be utilized to characterize LXRα antagonist activity, by evaluating the ability of a compound to block the effects of an LXRα agonist, such as 24,25-epoxycholesterol.
Briefly, for the cell-based assay, a DNA-binding domain of the nonreceptor transcription factor GAL4 was fused to the putative ligand-binding domain of LXRα. The resultant construct was introduced into 293 cells, together with UAS-containing luciferase reporter construct. The transfected cells were then treated with chemical libraries and luciferase activity was measured. Individual compounds were evaluated relative to a control (no addition of compound) and the EC50 was determined as the concentration necessary to produce 50% of the maximal luciferase activity.

LXRα [2] = molecular target: T2, LXRα (Homo sapiens, UniProt Q13133); assay: peptide sensor LXR assay (in vitro); format: biochemical
T2 sequence (Q13133 1-447): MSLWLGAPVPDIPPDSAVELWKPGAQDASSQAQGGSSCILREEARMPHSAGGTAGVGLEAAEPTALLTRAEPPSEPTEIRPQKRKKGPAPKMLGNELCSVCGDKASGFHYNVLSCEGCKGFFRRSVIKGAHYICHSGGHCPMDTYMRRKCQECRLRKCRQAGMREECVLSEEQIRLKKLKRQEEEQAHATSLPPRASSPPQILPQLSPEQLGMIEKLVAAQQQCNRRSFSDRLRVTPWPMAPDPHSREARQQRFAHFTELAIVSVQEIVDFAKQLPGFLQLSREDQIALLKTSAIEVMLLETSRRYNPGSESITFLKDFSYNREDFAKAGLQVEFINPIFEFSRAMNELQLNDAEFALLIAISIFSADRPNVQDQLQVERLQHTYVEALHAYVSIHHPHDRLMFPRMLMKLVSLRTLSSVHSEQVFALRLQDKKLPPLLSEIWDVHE
Protocol: as §1
The peptide sensor LXR assay is an in vitro assay and was conducted as generally described in co-pending applications Ser. Nos. 08/975,614 (filed Nov. 21, 1997) and 09/163,713 (filed Sep. 30, 1998).

O=S(=O)(Nc1ccc(C(O)(C(F)(F)F)C(F)(F)F)cc1)c1ccccc1 [Compound 2]
pEC50 (LXRα [1]): > 5.70 | pEC50 (LXRα [2]): > 5.70
